Experimental data: article PMC9108603, “Microbial Metabolite Inspired β‐Peptide Polymers Displaying Potent and Selective Antifungal Activity” (Advanced Science, 2022)
In brackets after ≈: the same amount, converted by molar mass. Where two headings read alike, the source gives them in different places.

Experiments:
various mammalian cells = assay: Cytotoxicity, MTT assay, summary over cell types; type: cell-based; details: NIH 3T3, HUVEC, RAW264.7, LO2, COS7, NCM‐460, 24 h
Description: (§1) Cytotoxicity assay. Cytotoxicity tests were performed on NIH 3T3 fibroblast cells, endothelial cells (HUVEC), macrophage (RAW264.7), liver cells (LO2), kidney cells (COS7) and enterocyte (NCM-460) using MTT assay. Cells were cultured in DMEM supplemented with 10% FBS, 5% penicillin, 2 mM L-glutamine and incubated at 37 °C in 5% CO 2. Cells were harvested and seeded onto 96-well plates at a density of 1.0 × 10^4 cells per well and incubated for 24 h. On each plate, wells containing growth medium only and cells in growth medium without any antifungal agent were used as the negative and positive control, […]
(§2) concentrations ranging from 800 to 1.6 μg/mL. Medium in each cell-containing well was replaced with 100 μL of the corresponding polymer solution, and the plates were incubated at 37 °C for 24 h. Then, the solution in each well was switched to 100 µL MTT solution (1 mg/mL) and the plate was incubated in the dark at 37 °C for 4 h. […] Then 85 µL of the supernatant from each well was transferred to the corresponding well in a new plate, followed by absorbance measurement at 570 nm on a plate reader. […] The percentage of cell viability in each test well, relative to the positive control (which defines 100%) w as calculated from [% fibroblast growth = (A polymer – Ablank)/(Acontrol – A blank) × 100]. […]

human red blood cells = assay: Hemolysis assay; details: human RBCs in TBS pH 7.2, 37 °C, 1 h, OD 405 nm, 2000 to 15.6 μg/mL, Triton X-100 as 100%
Description: (§3) aforementioned antifungal assay. Gram-positive bacteria ( S. aureus ATCC 6538, S.
The positive controls used in
Then, 100 μL of the RBC working
Molecular Devices Emax precision microplate reader. Measurements were performed in duplicate and repeated on three different days. The percentage of hemolysis at each polymer […]
and plotted against polymer concentration to give the dose-response curves for hemolysis for each polymer. The HC 10 value for each polymer was defined as the polymer concentration to cause 10% lysis of RBCs. All measurements were performed with three replicates.
Cytotoxicity assay. Cytotoxicity tests were performed on NIH 3T3 fibroblast cells, endothelial cells (HUVEC), macrophage (RAW264.7), liver cells (LO2), kidney cells (COS7) and enterocyte (NCM-460) using MTT assay. Cells were cultured in DMEM supplemented with 10% FBS, 5% penicillin, 2 mM L-glutamine and incubated at 37 °C in 5% CO 2. […]
concentrations ranging from 800 to 1.6 μg/mL. […] Then 85 µL of the supernatant from each well was transferred to the corresponding well in a new plate, followed by absorbance measurement at 570 nm on a plate reader. […] The percentage of cell viability in each test well, relative to the positive control (which defines 100%) w as calculated from [% fibroblast growth = (A polymer – Ablank)/(Acontrol

[1] = system: endothelial cells (HUVEC); assay: Cytotoxicity, MTT assay; type: cell-based, human; details: 24 h, 37 °C, 800 to 1.6 μg/mL, 50% cell viability
Description: as §1, §2

A. Baumannii ATCC 747 = assay: Antibacterial MIC test; type: cell-based; details: 1.0 × 10^5 CFU/mL in MH medium
Description: as §3

E. coli ATCC 25922 = assay: Antibacterial MIC test; type: cell-based; details: 1.0 × 10^5 CFU/mL in MH medium
Description: as §3

[2] = system: K. pneumoniae ATCC 700603; assay: Antibacterial MIC test; type: cell-based; details: 1.0 × 10^5 CFU/mL in MH medium
Description: as §3

C. albicans [3] = assay: MIC assay (in vitro antifungal assay); type: cell-based, Candida albicans
Description: (§4) In vitro antifungal assays. The MIC assays for C. albicans (K1, SC5314, Gu5, ATCC90028, R01, R02, R03 and R04 strains) and C. neoformans (H99, MYA737 and JEC21 strains) were conducted according to a previously described protocol. The cultured fungal cells were collected at 2.5 × 10^3 CFU/mL in RPMI 1640 medium to give the working suspension. Two- […]
(§5) Then 50 µL of the cell suspension was added to each well. Wells containing cells in RPMI without any polymer or antifungal drug were used as drug-free controls, and wells containing RPMI medium only were used as cell-free controls. The plate was gently stirred for 10 seconds and then incubated at 30 °C. After C. albicans and C. neoformans cells were incubated for 24 h and 48 h, respectively, fungal cell growth was checked visually. […]

C. albicans [4] = assay: MFC assay, plating after the MIC test; type: cell-based; details: Candida albicans; further: kills > 99.9%
Description: as §4
as §5, with “visually. The MIC values were identified as the lowest concentration” for “visually.”
(§6) The MFC assay for Candida and Cryptococcus was conducted after the MIC test.
(§7) An aliquot of 3 µL premixed suspension from each well was plated on the yeast extract-peptone-dextrose (YPD) agar. The plates were incubated at 30 °C for 24 h and 48 h, respectively, for C. albicans cells and C. neoformans cells. Then the plate was inspected visually for colony formation. […]

C. neoformans [5] = assay: MFC assay, plating after the MIC test; type: cell-based; details: Cryptococcus neoformans, 48 h; further: kills > 99.9%
Description: as §4
as §5, with “visually. The MIC values were identified as the lowest concentration” for “visually.”
as §6, §7

C. neoformans [6] = assay: MIC assay (in vitro antifungal assay); type: cell-based; details: Cryptococcus neoformans, 48 h
Description: as §4
as §5, with “plate to give 50 µL compound solution in each well. Then” for “Then”

C. albicans (R02 strain) = assay: microbe, parasite or virus in culture; type: cell-based, Candida albicans; details: for MIC50: Candida albicans
Description: Drug resistance studies. Drug resistance was induced by treating the C. albicans (R02 strain) repeatedly with antifungal agents. […]
albicans were tested for 30 passages of growth, which is long enough and adopted by many studies. C. albicans exposed to the 1/2 MIC concentration at the particular passage were re-grown to a logarithmic growth phrase and re-used for the subsequent passage’s MIC measurement for the same antifungal agent. Drug-resistant behavior of C. albicans was evaluated by recording the changes in the MIC compared to the original passage. All measurements were performed in duplicates. […]

[7] = system: Gram‐positive and Gram‐negative bacteria; assay: Antibacterial MIC test, summary over six bacteria; type: cell-based; details: S. aureus, S. epidermidis, B. subtilis, E. coli, A. baumannii, K. pneumoniae
Description: as §3

S. aureus ATCC 6538 = assay: Antibacterial MIC test; type: cell-based; details: 1.0 × 10^5 CFU/mL in MH medium
Description: as §3

[8] = system: S. epidermidis ATCC 49134; assay: Antibacterial MIC test; type: cell-based; details: 1.0 × 10^5 CFU/mL in MH medium
Description: as §3

B. subtilis BR151 = assay: Antibacterial MIC test; type: cell-based; details: 1.0 × 10^5 CFU/mL in MH medium
Description: as §3

For poly(DL‐diaminopropionic acid) [PDAP5], the “IC50 over six mammalian cell types (range)” value (various mammalian cells) was 340 to 800 µg/mL and the “HC10 (concentration to cause 10% hemolysis)” value (human red blood cells) was 1000 µg/mL.

With poly(DL‐diaminopropionic acid) [PDAP10] the “IC50 HUVEC” value [1] was 675 µg/mL.

polymyxin B was tested, and the “MIC A. baumannii” value (A. Baumannii ATCC 747) was 0.2 µg/mL, the “MIC E. coli” value (E. coli ATCC 25922) was 0.2 µg/mL and the “MIC K. pneumoniae” value [2] was 0.8 µg/mL.

`OC(Cn1cncn1)(Cn1cncn1)c1ccc(F)cc1F` [fluconazole] gave an MIC50 (C. albicans [3]; Candida albicans, 24 h, read-out: MIC50 (used for fluconazole) C. albicans Gu5) of 200 µg/mL (≈ 653 µM), an MIC50 (C. albicans [3]; Candida albicans, 24 h, read-out: MIC50 (used for fluconazole) C. albicans K1) of 0.4 µg/mL (≈ 1.31 µM) and an MIC50 (C. albicans [3]; Candida albicans, 24 h, read-out: MIC50 (used for fluconazole) C. albicans R01) of 0.4 µg/mL (≈ 1.31 µM). For the same molecule, the MIC50 (C. albicans [3]; Candida albicans, 24 h, read-out: MIC50 (used for fluconazole) C. albicans R02) was 0.4 µg/mL (≈ 1.31 µM), the MIC50 (C. albicans [3]; Candida albicans, 24 h, read-out: MIC50 (used for fluconazole) C. albicans R03) was 0.2 µg/mL (≈ 0.653 µM) and the MIC50 (C. albicans [3]; Candida albicans, 24 h, read-out: MIC50 (used for fluconazole) C. albicans R04) was 0.2 µg/mL (≈ 0.653 µM). It also gave an MIC50 (C. albicans [3]; Candida albicans, ATCC90028, 24 h, read-out: MIC50 (used for fluconazole) C. albicans ATCC90028) of 0.2 µg/mL (≈ 0.653 µM), an MIC50 (C. albicans [3]; Candida albicans, SC5314, 24 h, read-out: MIC50 (used for fluconazole) C. albicans SC5314) of 50 µg/mL (≈ 163 µM) and an MIC (C. albicans [3]; Candida albicans, read-out: MIC of fluconazole (complete inhibition), all strains of C. albicans) of over 200 µg/mL. The MFC (C. albicans [4]; 24 h, read-out: MFC C. albicans Gu5) was over 200 µg/mL, the MFC (C. albicans [4]; 24 h, read-out: MFC C. albicans K1) was over 200 µg/mL and the MFC (C. albicans [4]; 24 h, read-out: MFC C. albicans R01) was over 200 µg/mL. It also gave an MFC (C. albicans [4]; 24 h, read-out: MFC C. albicans R02) of over 200 µg/mL, an MFC (C. albicans [4]; 24 h, read-out: MFC C. albicans R03) of over 200 µg/mL and an MFC (C. albicans [4]; 24 h, read-out: MFC C. albicans R04) of over 200 µg/mL. The MFC (C. albicans [4]; ATCC90028, 24 h, read-out: MFC C. albicans ATCC90028) was over 200 µg/mL, the MFC (C. albicans [4]; SC5314, 24 h, read-out: MFC C. albicans SC5314) was over 200 µg/mL and the MFC (C. neoformans [5]; read-out: MFC C. neoformans H99) was 6.3 µg/mL (≈ 20.6 µM). The MFC (C. neoformans [5]; read-out: MFC C. neoformans JEC21) was 12.5 µg/mL (≈ 40.8 µM), the MFC (C. neoformans [5]; read-out: MFC C. neoformans MYA737) was 6.3 µg/mL (≈ 20.6 µM) and the MIC50 (C. neoformans [6]; read-out: MIC50 (row marked fluconazole*) C. neoformans H99) was 6.3 µg/mL (≈ 20.6 µM). The MIC50 (C. neoformans [6]; read-out: MIC50 (row marked fluconazole*) C. neoformans JEC21) was 12.5 µg/mL (≈ 40.8 µM), the MIC50 (C. neoformans [6]; read-out: MIC50 (row marked fluconazole*) C. neoformans MYA737) was 6.3 µg/mL (≈ 20.6 µM) and the “Increase of MIC50 after 30 passages” value (C. albicans (R02 strain); C. albicans R02, continuous treatment with 0.5 × MIC50) was “eightfolds”. The MIC50 (C. albicans (R02 strain); read-out: MIC50 after 30 passages) was 1.6 µg/mL (≈ 5.22 µM) and the MIC50 (C. albicans (R02 strain); read-out: MIC50 before passaging) was 0.2 µg/mL (≈ 0.653 µM).

In the case of ε‐poly‐lysine [ε-PL], the “Effect of increasing K+ on antifungal activity” value (C. albicans [3]; K+ up to 20 × 10^−3 M, C. albicans K1) is reported as “didn't affect”, the “MIC C. albicans K1, standard MIC test in RPMI 1640” value (C. albicans [3]; Na+ 103 mM, K+ 5.4 mM) is reported as 400 µg/mL and the “MIC C. albicans K1, physiological salt concentration” value (C. albicans [3]; Na+ 150 mM, K+ 5.4 mM) is reported as 1600 μg/mL. The “MIC C. albicans K1, Na+ ↑” value (C. albicans [3]; Na+ 200 mM, K+ 5.4 mM) was over 1600 µg/mL, the “MIC against C. albicans (Figure 1a)” value (C. albicans [3]; approximate value printed in the design figure) was ~ 400 μg/mL and the “MIC against three strains of C. albicans (range)” value (C. albicans [3]; range over three strains, Figure 2d) was 200 to 400 µg/mL. The “MIC against the six bacteria (summary)” value [7] was 1.6 to 6.3 µg/mL, the “MIC A. baumannii” value (A. Baumannii ATCC 747) was 6.3 µg/mL and the “MIC S. aureus” value (S. aureus ATCC 6538) was 3.1 µg/mL. For the same molecule, the “MIC E. coli” value (E. coli ATCC 25922) was 6.3 µg/mL, the “MIC S. epidermidis” value [8] was 3.1 µg/mL and the “MIC K. pneumoniae” value [2] was 6.3 µg/mL. For the same molecule, the “MIC B. subtilis” value (B. subtilis BR151) was 1.6 µg/mL.
